# The supplement of paper PMC11451515
# System: NOMO1
# Experiment: cell viability relative to DMSO control; higher = less cytotoxic
# Settings: 48 h
# Method in brief: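 Before seeding, each leukemia line was adapted for at least four passages in each medium. NOMO1 or SEM cells (500 cells/well) and P12-Ichikawa cells (1000 cells/well) went into 1536-well plates at 5 μl, then received library compounds in DMSO by pin dosing across 11 threefold concentrations, 47 μM to 0.79 nM. Readout was CellTiter-Glo One luminescence after 48 h at 37°C, and viability is given as a per-plate percentage of DMSO wells, with cell-free wells as background.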
# [1] = HPLM + 10% dialyzed FBS, 0.000781 µM
# [2] = HPLM + 10% dialyzed FBS, 0.00234 µM
# [3] = HPLM + 10% dialyzed FBS, 0.00702 µM
# [4] = HPLM + 10% dialyzed FBS, 0.0211 µM
# [5] = HPLM + 10% dialyzed FBS, 0.0632 µM
# [6] = HPLM + 10% dialyzed FBS, 0.19 µM
# [7] = HPLM + 10% dialyzed FBS, 0.569 µM
# [8] = HPLM + 10% dialyzed FBS, 1.71 µM
# [9] = HPLM + 10% dialyzed FBS, 5.12 µM
# [10] = HPLM + 10% dialyzed FBS, 15.4 µM
# [11] = HPLM + 10% dialyzed FBS, 46.1 µM
# [12] = RPMI 5 mM glucose + 10% FBS, 0.000781 µM
# [13] = RPMI 5 mM glucose + 10% FBS, 0.00234 µM
# [14] = RPMI 5 mM glucose + 10% FBS, 0.00702 µM
# [15] = RPMI 5 mM glucose + 10% FBS, 0.0211 µM
# [16] = RPMI 5 mM glucose + 10% FBS, 0.0632 µM
# [17] = RPMI 5 mM glucose + 10% FBS, 0.19 µM
# [18] = RPMI 5 mM glucose + 10% FBS, 0.569 µM
# [19] = RPMI 5 mM glucose + 10% FBS, 1.71 µM
# [20] = RPMI 5 mM glucose + 10% FBS, 5.12 µM
# [21] = RPMI 5 mM glucose + 10% FBS, 15.4 µM
# [22] = RPMI 5 mM glucose + 10% FBS, 46.1 µM
# [23] = RPMI 5 mM glucose + 10% dialyzed FBS, 0.000781 µM
# [24] = RPMI 5 mM glucose + 10% dialyzed FBS, 0.00234 µM
# [25] = RPMI 5 mM glucose + 10% dialyzed FBS, 0.00702 µM
# [26] = RPMI 5 mM glucose + 10% dialyzed FBS, 0.0211 µM
# [27] = RPMI 5 mM glucose + 10% dialyzed FBS, 0.0632 µM
# [28] = RPMI 5 mM glucose + 10% dialyzed FBS, 0.19 µM
# [29] = RPMI 5 mM glucose + 10% dialyzed FBS, 0.569 µM
# [30] = RPMI 5 mM glucose + 10% dialyzed FBS, 1.71 µM
# [31] = RPMI 5 mM glucose + 10% dialyzed FBS, 5.12 µM
# [32] = RPMI 5 mM glucose + 10% dialyzed FBS, 15.4 µM
# [33] = RPMI 5 mM glucose + 10% dialyzed FBS, 46.1 µM
SMILES,cell viability [1] [%],cell viability [2] [%],cell viability [3] [%],cell viability [4] [%],cell viability [5] [%],cell viability [6] [%],cell viability [7] [%],cell viability [8] [%],cell viability [9] [%],cell viability [10] [%],cell viability [11] [%],cell viability [12] [%],cell viability [13] [%],cell viability [14] [%],cell viability [15] [%],cell viability [16] [%],cell viability [17] [%],cell viability [18] [%],cell viability [19] [%],cell viability [20] [%],cell viability [21] [%],cell viability [22] [%],cell viability [23] [%],cell viability [24] [%],cell viability [25] [%],cell viability [26] [%],cell viability [27] [%],cell viability [28] [%],cell viability [29] [%],cell viability [30] [%],cell viability [31] [%],cell viability [32] [%],cell viability [33] [%]
COc1cc(OC2CCN(C)CC2)ccc1Nc1ncc2c(n1)n(C1CCCC1)c(=O)n2C,80.9,86.8,107,85.9,96.8,90.8,103,108,93.6,87.7,2.59,82.7,82.5,75.4,84.8,78.1,92.8,83.2,76.5,81.1,76.9,18.4,76.6,88.9,90.4,83.6,81.2,95.2,91.6,100,91.7,60.4,16.1
COCC1(CO)C(=O)C2CCN1CC2 (centres undefined),116,106,103,123,104,121,92.4,130,105,60.1,31.7,91.9,95.4,102,106,107,104,103,100,111,79,18.1,93.8,110,94.6,98.8,115,108,90.9,94.6,104,94.8,50.2
CN(C)C1CCN(C(=O)c2ccc(NC(=O)Nc3nc(N4CCOCC4)nc(N4CCOCC4)n3)cc2)CC1,85.5,100,80,67.8,60.6,52.9,43.1,44.9,40.5,28.7,25.1,84.8,89.3,90.5,84.5,64.9,63.6,52.7,49,43.4,36.5,18.2,84.9,83.8,83.9,70.9,60.8,53.3,45.8,44.4,39.6,38,22.8
CCc1ccc(CCOc2ccc(CC3SC(=O)NC3=O)cc2)nc1 (centres undefined),125,106,119,134,130,113,111,112,96.7,114,106,112,123,129,120,107,112,99,121,106,107,106,–,–,–,–,–,–,–,–,–,–,–
N[S+]([O-])(=O)C1=C(Cl)C=C2\N=C/N[S+]([O-])(=O)C2=C1,109,109,119,122,114,121,118,119,109,116,124,94.2,100,109,100,112,105,112,107,114,99.5,101,101,105,106,112,112,108,102,105,112,105,105
